Source: patent US20250282768A1 (Janssen Pharmaceutica NV, priority 2022, published 2025)

Tested on: p-IKKa levels in L363 (NIK translocated multiple myeloma) cells
Experiment: Assay 2: Effect of compounds on p-IKKa levels in L363 (NIK translocated multiple myeloma) cells
Assay type: cell-based
Conditions: Homo sapiens, L-363, 6 h, read-out: Assay 2 IC50 (nM), p-IKKa (Ser 176/180) in BAFF stimulated L363 cells with MG132, 6 h; average if tested more than once
Procedure, shortened: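 Read-out is p-IKKa Ser176/180 by AlphaLISA SureFire in lysates. Cells were BAFF-primed (250 ng/ml) overnight or left unstimulated, then exposed 6 h at 37 °C to compound with MG132 (10 μM), 0.3% DMSO. IC50 from sigmoidal curve fit, normalized between stimulated and unstimulated controls.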

Compound	IC50 [nM]
CN1CC[C@@](O)(c2cc(-c3cccc(-c4ccnc(Nc5cnn(C)c5)n4)c3)no2)C1=O [Example 72, (R)-3-Hydroxy-1-methyl-3-(3-(3-(2-((1-methyl-1H-pyrazol-4-yl)amino)pyrimidin-4-yl)phenyl)isoxazol-5-yl)pyrrolidin-2-one]	> 500
CN1CC[C@@](O)(c2cc(-c3cccc(-c4ccnc(Nc5cc(CO)n(C)n5)n4)n3)no2)C1=O [Example 280, (R)-3-Hydroxy-3-(3-(6-(2-((5-(hydroxymethyl)-1-methyl-1H-pyrazol-3-yl)amino)pyrimidin-4-yl)pyridin-2-yl)isoxazol-5-yl)-1-methylpyrrolidin-2-one]	50 to 500
CN1CC[C@@](O)(c2cc(-c3cccc(-c4ccnc(Nc5cnn(CC(F)(F)F)c5)n4)n3)no2)C1=O [Example 42, (R)-3-Hydroxy-1-methyl-3-(3-(6-(2-((1-(2,2,2-trifluoroethyl)-1H-pyrazol-4-yl)amino)pyrimidin-4-yl)pyridin-2-yl)isoxazol-5-yl)pyrrolidin-2-one]	< 50
CN1CC[C@@](O)(c2cc(-c3cccc(-c4ccnc(NC5CC(C(F)(F)F)C5)n4)n3)no2)C1=O (stereo partly drawn) [Example 445, (R)-3-Hydroxy-1-methyl-3-(3-(6-(2-((3-(trifluoromethyl)cyclobutyl)amino)pyrimidin-4-yl)pyridin-2-yl)isoxazol-5-yl)pyrrolidin-2-one]	> 500
[2H]c1cc(-c2cccc(-c3cc([C@]4(O)CCN(C)C4=O)on3)n2)nc(Nc2ccn(C)n2)n1 [Example 209, (R)-3-Hydroxy-1-methyl-3-(3-(6-(2-((1-methyl-1H-pyrazol-3-yl)amino)pyrimidin-4-yl-6-d)pyridin-2-yl)isoxazol-5-yl)pyrrolidin-2-one]	< 50
Cc1nnc(Nc2nccc(-c3cccc(-c4cc([C@]5(O)CCN(C)C5=O)on4)n3)n2)o1 [Example 319, (R)-3-Hydroxy-1-methyl-3-(3-(6-(2-((5-methyl-1,3,4-oxadiazol-2-yl)amino)pyrimidin-4-yl)pyridin-2-yl)isoxazol-5-yl)pyrrolidin-2-one]	> 500
[2H]C1([2H])N(C)C(=O)[C@](O)(c2cc(-c3cccc(-c4ccnc(Nc5cnn(C)c5)n4)n3)no2)C1([2H])[2H] [Example 5, (R)-3-Hydroxy-1-methyl-3-(3-(6-(2-((1-methyl-1H-pyrazol-4-yl)amino)pyrimidin-4-yl)pyridin-2-yl)isoxazol-5-yl)pyrrolidin-2-one-4,4,5,5-d4]	< 50
CN1CC[C@@](O)(c2cc(-c3cccc(-c4ccnc(Nc5cc6n(n5)CCNC6)n4)c3)no2)C1=O [Example 416, (R)-3-Hydroxy-1-methyl-3-(3-(3-(2-((4,5,6,7-tetrahydropyrazolo[1,5-a]pyrazin-2-yl)amino)pyrimidin-4-yl)phenyl)isoxazol-5-yl)pyrrolidin-2-one]	> 500
CN1CC[C@@](O)(c2cc(-c3cccc(-c4ccnc(Nc5cncc(C#N)c5)n4)n3)no2)C1=O [Example 292, (R)-5-((4-(6-(5-(3-Hydroxy-1-methyl-2-oxopyrrolidin-3-yl)isoxazol-3-yl)pyridin-2-yl)pyrimidin-2-yl)amino)nicotinonitrile]	< 50
CN1CC[C@@](O)(c2cc(-c3cccc(-c4ccnc(Nc5cccnc5)n4)n3)no2)C1=O [Example 247, (R)-3-Hydroxy-1-methyl-3-(3-(6-(2-(pyridin-3-ylamino)pyrimidin-4-yl)pyridin-2-yl)isoxazol-5-yl)pyrrolidin-2-one]	> 500
CN1C(=O)[C@](O)(c2cc(-c3cccc(-c4ccnc(Nc5ccn(C)n5)n4)n3)no2)[C@H]2C[C@H]21 [Example 93, (1R,4R,5S)-4-Hydroxy-2-methyl-4-(3-(6-(2-((1-methyl-1H-pyrazol-3-yl)amino)pyrimidin-4-yl)pyridin-2-yl)isoxazol-5-yl)-2-azabicyclo[3.1.0]hexan-3-one]	50 to 500
C[C@@H](CC(F)(F)F)Nc1nccc(-c2cccc(-c3cc([C@]4(O)CCN(C)C4=O)on3)n2)n1 (single isomer, unassigned) [Example 437, (R)-3-Hydroxy-1-methyl-3-(3-(6-(2-(((*S)-4,4,4-trifluorobutan-2-yl)amino)pyrimidin-4-yl)pyridin-2-yl)isoxazol-5-yl)pyrrolidin-2-one]	50 to 500
CN1CC[C@@](O)(c2cc(-c3cccc(-c4ccnc(Nc5nc(CN6CCCC6)cs5)n4)n3)no2)C1=O [Example 258, (R)-3-Hydroxy-1-methyl-3-(3-(6-(2-((4-(pyrrolidin-1-ylmethyl)thiazol-2-yl)amino)pyrimidin-4-yl)pyridin-2-yl)isoxazol-5-yl)pyrrolidin-2-one]	< 50
CN1CC[C@@](O)(c2cc(-c3cccc(-c4ccnc(Nc5ncn(C)n5)n4)n3)no2)C1=O [Example 318, (R)-3-Hydroxy-1-methyl-3-(3-(6-(2-((1-methyl-1H-1,2,4-triazol-3-yl)amino)pyrimidin-4-yl)pyridin-2-yl)isoxazol-5-yl)pyrrolidin-2-one]	> 500
Cc1nn(CC(C)(C)O)cc1Nc1nccc(-c2cccc(-c3cc([C@]4(O)CCN(C)C4=O)on3)n2)n1 [Example 234, (R)-3-Hydroxy-3-(3-(6-(2-((1-(2-hydroxy-2-methylpropyl)-3-methyl-1H-pyrazol-4-yl)amino)pyrimidin-4-yl)pyridin-2-yl)isoxazol-5-yl)-1-methylpyrrolidin-2-one]	< 50
CN1CC[C@@](O)(c2cc(-c3cccc(-c4ccnc(Nc5cnn6c5CN(CC5CC5)CC6)n4)n3)no2)C1=O [Example 433, (R)-3-(3-(6-(2-((5-(Cyclopropylmethyl)-4,5,6,7-tetrahydropyrazolo[1,5-a]pyrazin-3-yl)amino)pyrimidin-4-yl)pyridin-2-yl)isoxazol-5-yl)-3-hydroxy-1-methylpyrrolidin-2-one]	< 50
CCn1cc(Nc2nccc(-c3cccc(-c4cc([C@@]5(O)C(=O)N(C)CC5(F)F)on4)n3)n2)cn1 [Example 261, (R)-3-(3-(6-(2-((1-Ethyl-1H-pyrazol-4-yl)amino)pyrimidin-4-yl)pyridin-2-yl)isoxazol-5-yl)-4,4-difluoro-3-hydroxy-1-methylpyrrolidin-2-one]	< 50
Cc1noc([C@@H](C)Nc2nccc(-c3cccc(-c4cc([C@]5(O)CCN(C)C5=O)on4)n3)n2)n1 (single isomer, unassigned) [Example 150]	50 to 500
CN1CC[C@@](O)(c2cc(-c3cccc(-c4ccnc(NCCC(F)F)n4)n3)no2)C1=O [Example 359, (R)-3-(3-(6-(2-((3,3-Difluoropropyl)amino)pyrimidin-4-yl)pyridin-2-yl)isoxazol-5-yl)-3-hydroxy-1-methylpyrrolidin-2-one]	50 to 500
Cc1cc(Nc2nccc(-c3cccc(-n4cc([C@@]5(O)C(=O)N(C)CC5(F)F)nn4)n3)n2)ccn1 [Example 117, (R)-4,4-Difluoro-3-hydroxy-1-methyl-3-(1-(6-(2-((2-methylpyridin-4-yl)amino)pyrimidin-4-yl)pyridin-2-yl)-1H-1,2,3-triazol-4-yl)pyrrolidin-2-one]	< 50
CN(C)C[C@@H](Nc1nccc(-c2cccc(-c3cc([C@]4(O)CCN(C)C4=O)on3)n2)n1)c1ccccc1 [Example 397, (R)-3-(3-(6-(2-(((S)-2-(Dimethylamino)-1-phenylethyl)amino)pyrimidin-4-yl)pyridin-2-yl)isoxazol-5-yl)-3-hydroxy-1-methylpyrrolidin-2-one]	> 500
C[C@H](Nc1nccc(-c2cccc(-c3cc([C@]4(O)CCN(C)C4=O)on3)n2)n1)c1ccncc1 (single isomer, unassigned) [Example 155]	50 to 500
CN1CC[C@@](O)(c2cc(-c3cccc(-c4ccnc(Nc5ccnc(C(F)F)c5)n4)n3)no2)C1=O [Example 294, (R)-3-(3-(6-(2-((2-(Difluoromethyl)pyridin-4-yl)amino)pyrimidin-4-yl)pyridin-2-yl)isoxazol-5-yl)-3-hydroxy-1-methylpyrrolidin-2-one]	< 50
CC(C)[C@@H](Nc1nccc(-c2cccc(-c3cc([C@]4(O)CCN(C)C4=O)on3)n2)n1)c1cnn(C)c1 (single isomer, unassigned) [Example 162]	> 500
Cc1ncc(Nc2nccc(-c3cccc(-c4cc([C@]5(O)CCN(C)C5=O)on4)n3)n2)cn1 [Example 291, (R)-3-Hydroxy-1-methyl-3-(3-(6-(2-((2-methylpyrimidin-5-yl)amino)pyrimidin-4-yl)pyridin-2-yl)isoxazol-5-yl)pyrrolidin-2-one]	50 to 500
CN1CC[C@@](O)(c2cc(-c3cccc(-c4ccnc(Nc5cnn(CCF)c5)n4)n3)no2)C1=O [Example 61, (R)-3-(3-(6-(2-((1-(2-Fluoroethyl)-1H-pyrazol-4-yl)amino)pyrimidin-4-yl)pyridin-2-yl)isoxazol-5-yl)-3-hydroxy-1-methylpyrrolidin-2-one]	< 50
COC1CCC(Nc2nccc(-c3cccc(-c4cc([C@]5(O)CCN(C)C5=O)on4)n3)n2)CC1 (stereo partly drawn) [Example 469, (R)-3-Hydroxy-3-(3-(6-(2-((4-methoxycyclohexyl)amino)pyrimidin-4-yl)pyridin-2-yl)isoxazol-5-yl)-1-methylpyrrolidin-2-one]	> 500
CN1CC[C@@](O)(c2cc(-c3cccc(-c4ccnc(Nc5cn(C)nc5OCC(F)(F)F)n4)n3)no2)C1=O [Example 59, (R)-3-Hydroxy-1-methyl-3-(3-(6-(2-((1-methyl-3-(2,2,2-trifluoroethoxy)-1H-pyrazol-4-yl)amino)pyrimidin-4-yl)pyridin-2-yl)isoxazol-5-yl)pyrrolidin-2-one]	< 50
